Source: the CheMixHub viscosity set

Test: xn = mol fraction of the nth substance listed

ClC(Cl)Cl + CCCCn1cc[n+](C)c1.F[B-](F)(F)F
298.15 K, 101 kPa
Settings	viscosity [mPa·s]
x1 = 0.1079	92.5
x1 = 0.2033	73.3
x1 = 0.7028	9.24

CCCCCCCCCC(=O)OC + CCCO
viscosity [mPa·s], 100 kPa
Settings	x1 = 0.0999	x1 = 0.1999	x1 = 0.2999	x1 = 0.3995	x1 = 0.4995	x1 = 0.599	x1 = 0.6999	x1 = 0.8002	x1 = 0.8976
298.15 K	1.745	1.671	1.648	1.652	1.676	1.702	1.746	1.788	1.859
303.15 K	1.566	1.506	1.487	1.495	1.515	1.547	1.583	1.622	1.692
308.15 K	1.408	1.361	1.35	1.36	1.38	1.413	1.442	1.482	1.546
313.15 K	1.271	1.236	1.228	1.241	1.262	1.295	1.325	1.36	1.418
318.15 K	1.151	1.124	1.124	1.136	1.161	1.19	1.216	1.252	1.304
323.15 K	1.045	1.027	1.031	1.045	1.067	1.097	1.126	1.158	1.207

CCCCCCCCCCCCCCCC + CCCO
101 kPa
Settings	viscosity [mPa·s]
298.15 K, x2 = 0.3	2.665
308.15 K, x2 = 0.8	1.795
